In patent publication US8691758B2, “Inhibitors of serine proteases, particularly HCV NS3-NS4A protease” (Vertex Pharmaceuticals Incorporated, priority 2003, dated 2014):

Key:
[1] = target: HCV NS3-NS4A protease (tNS3 with KK4A) (Hepatitis C virus genotype 1a, UniProt P27958); assay: HCV Ki assay (HPLC microbore separation of 5AB substrate and products); assay type: biochemical; conditions: 25 nM tNS3, 25 μM KK4A, 25 μM 5AB substrate, 20 min at 30 C
Procedure: HPLC Microbore Method for Separation of 5AB Substrate and Products
• NH2-Glu-Asp-Val-Val-(alpha)Abu-Cys-Ser-Met-Ser-Tyr-COOH
A stock solution of 20 mM 5 AB (or concentration of your choice) was made in DMSO w/0.2M DTT. This was stored in aliquots at −20 C.
Buffer: 50 mM HEPES, pH 7.8; 20% glycerol; 100 mM NaCl
Total assay volume was 100 μL
The buffer, KK4A, DTT, and tNS3 were combined; distributed 78 μL each into wells of 96 well plate. This was incubated at 30 C for ˜5-10 min.
2.5 μL of appropriate concentration of test compound was dissolved in DMSO (DMSO only for control) and added to each well. This was incubated at room temperature for 15 min.
Initiated reaction by addition of 20 μL of 250 μM 5AB substrate (25 μM concentration is equivalent or slightly lower than the Km for 5 AB). • Incubated for 20 min at 30 C. • Terminated reaction by addition of 25 μL of 10% TFA • Transferred 120 μL aliquots to HPLC vials
Separated SMSY product from substrate and KK4A by the following method:
Microbore Separation Method:
• Instrumentation: Agilent 1100 • Degasser G1322A • Binary pump G1312A • Autosampler G1313A • Column thermostated chamber G1316A • Diode array detector G1315A • Column: • Phenomenex Jupiter; 5 micron C18; 300 angstroms; 150×2 mm; P/O 00F-4053-B0 • Column thermostat: 40 C • Injection volume: 100 μL • Solvent A=HPLC grade water+0.1% TFA • Solvent B=HPLC grade acetonitrile+0.1% TFA
• Stop time: 17 min • Post-run time: 10 min.

[2] = tested on: Cells containing hepatitis C virus (HCV) replicon; assay: HCV replicon cell assay (Taqman RT-PCR of HCV RNA); assay type: cell-based; conditions: concentration at which 50% inhibition of HCV RNA level is observed, 48-hour incubation, 2% FBS
Procedure: HCV Replicon Cell Assay Protocol
Cells containing hepatitis C virus (HCV) replicon were maintained in DMEM containing 10% fetal bovine serum (FBS), 0.25 mg per ml of G418, with appropriate supplements (media A).
On day 1, replicon cell monolayer was treated with a trypsin:EDTA mixture, removed, and then media A was diluted into a final concentration of 100,000 cells per ml wit. 10,000 cells in 100 ul were plated into each well of a 96-well tissue culture plate, and cultured overnight in a tissue culture incubator at 37° C.
On day 2, compounds (in 100% DMSO) were serially diluted into DMEM containing 2% FBS, 0.5% DMSO, with appropriate supplements (media B). The final concentration of DMSO was maintained at 0.5% throughout the dilution series.
Media on the replicon cell monolayer was removed, and then media B containing various concentrations of compounds was added. Media B without any compound was added to other wells as no compound controls.
Cells were incubated with compound or 0.5% DMSO in media B for 48 hours in a tissue culture incubator at 37° C. At the end of the 48-hour incubation, the media was removed, and the replicon cell monolayer was washed once with PBS and stored at −80° C. prior to RNA extraction.
Culture plates with treated replicon cell monolayers were thawed, and a fixed amount of another RNA virus, such as Bovine Viral Diarrhea Virus (BVDV) was added to cells in each well. RNA extraction reagents (such as reagents from RNeasy kits) were added to the cells immediately to avoid degradation of RNA. Total RNA was extracted according the instruction of manufacturer with modification to improve extraction efficiency and consistency. Finally, total cellular RNA, including HCV replicon RNA, was eluted and stored at −80° C. until further processing.
A Taqman real-time RT-PCR quantification assay was set up with two sets of specific primers and probe. One was for HCV and the other was for BVDV. Total RNA extractants from treated HCV replicon cells was added to the PCR reactions for quantification of both HCV and BVDV RNA in the same PCR well. Experimental failure was flagged and rejected based on the level of BVDV RNA in each well. The level of HCV RNA in each well was calculated according to a standard curve run in the same PCR plate. The percentage of inhibition or decrease of HCV RNA level due to compound treatment was calculated using the DMSO or no compound control as 0% of inhibition. The IC50 (concentration at which 50% inhibition of HCV RNA level is observed) was calculated from the titration curve of any given compound.

Chain of HCV NS3-NS4A protease (tNS3 with KK4A) (P27958 1658-1711): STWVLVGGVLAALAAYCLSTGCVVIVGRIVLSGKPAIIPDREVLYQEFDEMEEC
Chain of HCV NS3-NS4A protease (tNS3 with KK4A) (P27958 1027-1208): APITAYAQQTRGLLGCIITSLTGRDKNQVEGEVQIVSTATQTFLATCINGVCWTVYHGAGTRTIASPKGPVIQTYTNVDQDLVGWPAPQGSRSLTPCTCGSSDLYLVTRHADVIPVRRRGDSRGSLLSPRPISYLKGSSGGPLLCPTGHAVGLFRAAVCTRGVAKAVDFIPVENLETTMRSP

| Structure (SMILES) | Ki [1] | IC50 [2] |
| --- | --- | --- |
| CCC[C@H](NC(=O)[C@@H]1CC2(CN1C(=O)[C@@H](NC(=O)[C@@H](NC(=O)c1[nH]c(C)c(C)c1C(C)=O)C1CCCCC1)C(C)(C)C)SCCCS2)C(=O)C(=O)NC1CC1 [Compound 1a, 2-(2-{2-[(3-acetyl-4,5-dimethyl-1H-pyrrole-2-carbonyl)-amino]-2-cyclohexyl-acetylamino}-3,3-dimethyl-butyryl)-6,10-dithia-2-aza-spiro[4.5]decane-3-carboxylic acid(1-cyclopropylaminooxalyl-butyl)-amide] | < 500 nM | < 500 nM |
| CCC[C@H](NC(=O)[C@@H]1CC2(CN1C(=O)[C@@H](NC(=O)[C@@H](NC(=O)c1cnccn1)C1CCCCC1)C(C)(C)C)SCCCS2)C(=O)C(=O)NC1CC1 [Compound 2a, 2-(2-{2-cyclohexyl-2-[(pyrazine-2-carbonyl)-amino]-acetylamino}-3,3-dimethyl-butyryl)-6,10-dithia-2-azaspiro[4.5]decane-3-carboxylic acid(1-cyclopropylaminooxalyl-butyl)-amide] | < 500 nM | < 500 nM |
| CCC[C@H](NC(=O)[C@@H]1CC2(CN1C(=O)[C@@H](NC(=O)[C@@H](NC(=O)c1cnccn1)C1CCCCC1)C(C)(C)C)SCCCS2)C(=O)C(N)=O [Compound 3a] | < 500 nM | < 500 nM |
| CCC[C@H](NC(=O)[C@@H]1CC2(CN1C(=O)[C@@H](NC(=O)[C@@H](NC(=O)c1[nH]c(C)c(C)c1C(C)=O)C1CCCCC1)C(C)(C)C)SCCCS2)C(=O)C(N)=O [Compound 4a] | < 500 nM | < 500 nM |
| CCC[C@@H](NC(=O)[C@@H]1CC2(CN1C(=O)[C@@H](NC(=O)[C@@H](NC(=O)c1cnccn1)C1CCCCC1)C(C)(C)C)SCCCS2)C(=O)C(=O)NC1CC1 [Compound 5a] | < 500 nM |  |
| CCCC(NC(=O)[C@@H]1CC2(CN1C(=O)[C@@H](NC(=O)[C@@H](NC(=O)c1cnccn1)C1CCCCC1)C(C)(C)C)SCCCS2)C(=O)C(=O)NC1CC1 (stereo partly drawn) [Compound 6a] | < 500 nM |  |
| CCC[C@H](NC(=O)[C@@H]1CC2(CN1C(=O)[C@@H](NC(=O)[C@@H](NC(=O)c1cnccn1)C1CCCCC1)C(C)(C)C)SCCS2)C(=O)C(=O)NC1CC1 [Compound 7a] | < 500 nM | < 500 nM |
